{"source": "patent US10358426B2", "about": "“Fungicidal substituted 2-[2-halogenalkyl-4-(phenoxy)-phenyl]-1-[1,2,4]triazol-1-yl-ethanol compounds” (BASF Agro B.V., priority 2011, dated 2019)", "key": {"Septoria tritici [1]": {"tested_on": "Septoria tritici", "assay": "Preventative control of leaf blotch on wheat, inoculation next day (Septtr P1), greenhouse", "format": "in vivo", "conditions": "for Disease (%) at 150 pm Septtr P1: 150 ppm, Use Example 9, untreated control 90; for Disease(%) at 150 ppm Septtr P1: Use Example 6, untreated control 80"}, "Septoria tritici [2]": {"tested_on": "Septoria tritici", "assay": "Preventative control of leaf blotch on wheat, inoculation seven days later (Septtr P7), greenhouse", "format": "in vivo"}, "Septoria tritici [3]": {"tested_on": "Septoria tritici", "assay": "Curative control of leaf blotch on wheat (Septtr K7), greenhouse", "format": "in vivo", "conditions": "untreated control 90"}, "Pyrenophora teres": {"tested_on": "Pyrenophora teres", "format": "cell-based", "conditions": "32 ppm; Use Example 10 M6"}, "Pyricularia oryzae": {"tested_on": "Pyricularia oryzae", "assay": "microbe, parasite or virus in culture", "format": "cell-based", "conditions": "for activity at 2 ppm: Pyricularia oryzae, read-out: growth (relative growth in % of control)"}, "Uncinula necator": {"tested_on": "Uncinula necator", "assay": "Control of powdery mildew on grape (Uncine P3), greenhouse", "format": "in vivo", "conditions": "untreated control 100", "procedure": "Preventative Control of Leaf Blotch on Wheat Caused by Septoria tritici (Septtr P7) Grape cuttings were grown in pots to the 4 to 5 leaf stage. […] Three days later the treated plants were inoculated with spores of Uncinula necator by shaking heavily infestated stock plants over the treated pots. […] Preventative Fungicidal Control of Early Blight on Tomatoes (Alternaria solani) (Alteso P7)"}, "Alternaria solani": {"tested_on": "Alternaria solani", "assay": "Preventative fungicidal control of early blight on tomatoes, inoculation seven days later (Alteso P7), greenhouse", "format": "in vivo", "conditions": "tomato; for Disease (%) at 63 ppm Alteso P7: untreated control 100; for Disease (%) at 16 ppm Alteso P7: untreated control 90"}, "[4]": {"conditions": "Use Example 11, untreated control 90"}, "[5]": {"conditions": "Use Example 8, untreated control 80"}, "[6]": {"conditions": "Use Example 6, untreated control 80"}}}
{"compound": "COC(Cn1cncn1)c1ccc(Oc2ccc(Cl)cc2)cc1Cl", "note": "(centres unmarked) [DE3801233 compound 2, reference compound]", "values": [{"measurement": "Disease (%) at 150 pm Septtr P1", "setting": "Septoria tritici [1]", "value": 30, "unit": "%"}, {"measurement": "Disease (%) at 16 ppm Septtr P7", "setting": "Septoria tritici [2]; [4]", "value": 90, "unit": "%"}, {"measurement": "Disease (%) at 16 ppm Septtr K7", "setting": "Septoria tritici [3]", "value": 80, "unit": "%"}]}
{"compound": "OC(Cn1cncn1)c1ccc(Oc2ccc(Cl)cc2Cl)cc1C(F)(F)F", "note": "(centres unmarked) [I-13]", "values": [{"measurement": "growth (relative growth in % of control)", "setting": "Pyrenophora teres", "value": 1, "unit": "%"}]}
{"compound": "OC(Cn1cncn1)c1ccc(Oc2ccc(Cl)cc2)cc1C(F)(F)F", "note": "(centres unmarked) [compound I-1]", "values": [{"measurement": "Disease(%) at 150 ppm Septtr P1", "setting": "Septoria tritici [1]", "value": 0, "unit": "%"}, {"measurement": "Growth (%) at 0.5 ppm Pyrior", "setting": "Pyricularia oryzae; Use Example 7", "value": 47, "unit": "%"}, {"measurement": "Disease (%) at 16 ppm Septtr P7", "setting": "Septoria tritici [2]; [5]", "value": 2, "unit": "%"}, {"measurement": "Disease (%) at 16 ppm Septtr P7", "setting": "Septoria tritici [2]; [4]", "value": 3, "unit": "%"}, {"measurement": "Disease (%) at 16 ppm Uncine P3", "setting": "Uncinula necator", "value": 0, "unit": "%"}, {"measurement": "Disease (%) at 63 ppm Alteso P7", "setting": "Alternaria solani", "value": 3, "unit": "%"}]}
{"compound": "CC(O)(Cn1cncn1)c1ccc(Oc2ccc(Cl)cc2)cc1C(F)(F)F", "note": "(centres unmarked) [compound I-2, 2-[4-(4-chloro-phenoxy)-2-trifluoromethyl-phenyl]-1-[1,2,4]triazol-1-yl-propan-2-ol]", "values": [{"measurement": "Growth (%) at 0.5 ppm Pyrior", "setting": "Pyricularia oryzae; Use Example 6", "value": 68, "unit": "%"}, {"measurement": "Growth (%) at 0.5 ppm Pyrior", "setting": "Pyricularia oryzae; Use Example 7", "value": 68, "unit": "%"}, {"measurement": "Disease (%) at 16 ppm Septtr P7", "setting": "Septoria tritici [2]; [6]", "value": 10, "unit": "%"}, {"measurement": "Disease (%) at 16 ppm Alteso P7", "setting": "Alternaria solani", "value": 15, "unit": "%"}]}
{"compound": "CCC(O)(Cn1cncn1)c1ccc(Oc2ccc(Cl)cc2)cc1C(F)(F)F", "note": "(centres unmarked) [compound I-3, 2-[4-(4-chloro-phenoxy)-2-trifluoromethyl-phenyl]-1[1,2,4]triazol-1-yl-butan-2-ol]", "values": [{"measurement": "Growth (%) at 0.5 ppm Pyrior", "setting": "Pyricularia oryzae; Use Example 7", "value": 58, "unit": "%"}, {"measurement": "activity at 2 ppm", "setting": "Pyricularia oryzae", "value": "≤ 4", "unit": "%"}]}
{"compound": "CCCC(O)(Cn1cncn1)c1ccc(Oc2ccc(Cl)cc2)cc1C(F)(F)F", "note": "(centres unmarked) [compound I-4]", "values": [{"measurement": "Growth (%) at 0.5 ppm Pyrior", "setting": "Pyricularia oryzae; Use Example 7", "value": 19, "unit": "%"}, {"measurement": "Disease (%) at 16 ppm Septtr P7", "setting": "Septoria tritici [2]; [5]", "value": 25, "unit": "%"}]}
{"compound": "CC#CC(O)(Cn1cncn1)c1ccc(Oc2ccc(Cl)cc2)cc1C(F)(F)F", "note": "(centres unmarked) [compound I-6, 2-[4-(4-chlorophenoxy)-2-(trifluoromethyl)phenyl]-1-(1,2,4-triazol-1-yl)pent-3-yn-2-ol]", "values": [{"measurement": "Growth (%) at 0.5 ppm Pyrior", "setting": "Pyricularia oryzae; Use Example 7", "value": 37, "unit": "%"}, {"measurement": "Disease (%) at 16 ppm Septtr P7", "setting": "Septoria tritici [2]; [5]", "value": 0, "unit": "%"}, {"measurement": "melting point", "value": 137, "unit": "°C"}]}
{"compound": "CC(C)C(O)(Cn1cncn1)c1ccc(Oc2ccc(Cl)cc2)cc1C(F)(F)F", "note": "(centres unmarked) [compound I-7, 2-[4-(4-chlorophenoxy)-2-(trifluoromethyl)phenyl]-3-methyl-1-(1,2,4-triazol-1-yl)butan-2-ol]", "values": [{"measurement": "melting point", "value": 114, "unit": "°C"}]}
{"compound": "COC(C)(Cn1cncn1)c1ccc(Oc2ccc(Cl)cc2)cc1C(F)(F)F", "note": "(centres unmarked) [compound I-10, 1-[2-[4-(4-chlorophenoxy)-2-(trifluoromethyl)phenyl]-2-methoxy-propyl]-1,2,4-triazole]", "values": [{"measurement": "activity at 2 ppm", "setting": "Pyricularia oryzae", "value": "≤ 4", "unit": "%"}]}
{"compound": "COC(Cn1cncn1)c1ccc(Oc2ccc(Cl)cc2)cc1C(F)(F)F", "note": "(centres unmarked) [compound I-14]", "values": [{"measurement": "Disease (%) at 150 pm Septtr P1", "setting": "Septoria tritici [1]", "value": 0, "unit": "%"}, {"measurement": "Disease (%) at 16 ppm Septtr P7", "setting": "Septoria tritici [2]; [4]", "value": 15, "unit": "%"}, {"measurement": "Disease (%) at 16 ppm Septtr K7", "setting": "Septoria tritici [3]", "value": 20, "unit": "%"}]}
{"compound": "CC(O)(Cn1cncn1)c1ccc(Oc2ccc(F)cc2)cc1C(F)(F)F", "note": "(centres unmarked) [compound I-16]", "values": [{"measurement": "Disease (%) at 150 pm Septtr P1", "setting": "Septoria tritici [1]", "value": 0, "unit": "%"}]}
{"compound": "OC(Cn1cncn1)c1ccc(Oc2ccc(Cl)cc2)cc1Cl", "note": "(centres unmarked) [compound V6, reference compound]", "values": [{"measurement": "Disease(%) at 150 ppm Septtr P1", "setting": "Septoria tritici [1]", "value": 60, "unit": "%"}, {"measurement": "Disease (%) at 16 ppm Septtr P7", "setting": "Septoria tritici [2]; [4]", "value": 30, "unit": "%"}, {"measurement": "Disease (%) at 16 ppm Uncine P3", "setting": "Uncinula necator", "value": 40, "unit": "%"}, {"measurement": "Disease (%) at 63 ppm Alteso P7", "setting": "Alternaria solani", "value": 40, "unit": "%"}]}
{"compound": "CC(O)(Cn1cncn1)c1ccc(Oc2ccc(Cl)cc2)cc1Cl", "note": "(centres unmarked) [compound V18, reference compound]", "values": [{"measurement": "Growth (%) at 0.5 ppm Pyrior", "setting": "Pyricularia oryzae; Use Example 6", "value": 82, "unit": "%"}, {"measurement": "Growth (%) at 0.5 ppm Pyrior", "setting": "Pyricularia oryzae; Use Example 7", "value": 82, "unit": "%"}, {"measurement": "Disease (%) at 16 ppm Septtr P7", "setting": "Septoria tritici [2]; [6]", "value": 60, "unit": "%"}, {"measurement": "Disease (%) at 16 ppm Septtr P7", "setting": "Septoria tritici [2]; [4]", "value": 67, "unit": "%"}, {"measurement": "Disease (%) at 16 ppm Alteso P7", "setting": "Alternaria solani", "value": 60, "unit": "%"}]}
{"compound": "CC(O)(Cn1cncn1)c1ccc(Oc2ccc(F)cc2)cc1Cl", "note": "(centres unmarked) [compound V19, reference compound]", "values": [{"measurement": "Disease (%) at 150 pm Septtr P1", "setting": "Septoria tritici [1]", "value": 40, "unit": "%"}, {"measurement": "Disease (%) at 16 ppm Septtr P7", "setting": "Septoria tritici [2]; [5]", "value": 60, "unit": "%"}]}
